Laboratory results reported in US20220315587A1, “COMPOUNDS FOR TREATMENT OF CANCER” (SINOPSEE THERAPEUTICS, priority 2019, published 2022).

What was measured:
CDK8 = CDK8 (Homo sapiens, UniProt P49336); assay: In vitro kinase assay ([γ-33P]-ATP); format: biochemical; conditions: ATP at apparent ATP-Km of the kinase
Experimental: (§1) To determine the inhibitory activity of compounds, in vitro kinase assays were performed on respective enzymes purified from Sf9 insect cells or E. coli as recombinant GST-fusion proteins or His-tagged proteins.

PDGFR-β = PDGFR-β (Homo sapiens, UniProt P09619); assay: In vitro kinase assay ([γ-33P]-ATP); format: biochemical; conditions: ATP at apparent ATP-Km of the kinase
Experimental: as §1

VEGFR-2 = VEGFR-2 (Homo sapiens, UniProt P35968); assay: In vitro kinase assay ([γ-33P]-ATP); format: biochemical; conditions: ATP at apparent ATP-Km of the kinase
Experimental: as §1

PDGFR-α = PDGFR-α (Homo sapiens, UniProt P16234); assay: In vitro kinase assay ([γ-33P]-ATP); format: biochemical; conditions: ATP at apparent ATP-Km of the kinase
Experimental: as §1

CDK19 = CDK19 (Homo sapiens, UniProt Q9BWU1); assay: In vitro kinase assay ([γ-33P]-ATP); format: biochemical; conditions: ATP at apparent ATP-Km of the kinase
Experimental: as §1

Flt3 = biological target: T1, Flt3 (Homo sapiens, UniProt P36888); assay: In vitro kinase assay ([γ-33P]-ATP); format: biochemical; conditions: ATP at apparent ATP-Km of the kinase
T1 sequence (P36888 27-993): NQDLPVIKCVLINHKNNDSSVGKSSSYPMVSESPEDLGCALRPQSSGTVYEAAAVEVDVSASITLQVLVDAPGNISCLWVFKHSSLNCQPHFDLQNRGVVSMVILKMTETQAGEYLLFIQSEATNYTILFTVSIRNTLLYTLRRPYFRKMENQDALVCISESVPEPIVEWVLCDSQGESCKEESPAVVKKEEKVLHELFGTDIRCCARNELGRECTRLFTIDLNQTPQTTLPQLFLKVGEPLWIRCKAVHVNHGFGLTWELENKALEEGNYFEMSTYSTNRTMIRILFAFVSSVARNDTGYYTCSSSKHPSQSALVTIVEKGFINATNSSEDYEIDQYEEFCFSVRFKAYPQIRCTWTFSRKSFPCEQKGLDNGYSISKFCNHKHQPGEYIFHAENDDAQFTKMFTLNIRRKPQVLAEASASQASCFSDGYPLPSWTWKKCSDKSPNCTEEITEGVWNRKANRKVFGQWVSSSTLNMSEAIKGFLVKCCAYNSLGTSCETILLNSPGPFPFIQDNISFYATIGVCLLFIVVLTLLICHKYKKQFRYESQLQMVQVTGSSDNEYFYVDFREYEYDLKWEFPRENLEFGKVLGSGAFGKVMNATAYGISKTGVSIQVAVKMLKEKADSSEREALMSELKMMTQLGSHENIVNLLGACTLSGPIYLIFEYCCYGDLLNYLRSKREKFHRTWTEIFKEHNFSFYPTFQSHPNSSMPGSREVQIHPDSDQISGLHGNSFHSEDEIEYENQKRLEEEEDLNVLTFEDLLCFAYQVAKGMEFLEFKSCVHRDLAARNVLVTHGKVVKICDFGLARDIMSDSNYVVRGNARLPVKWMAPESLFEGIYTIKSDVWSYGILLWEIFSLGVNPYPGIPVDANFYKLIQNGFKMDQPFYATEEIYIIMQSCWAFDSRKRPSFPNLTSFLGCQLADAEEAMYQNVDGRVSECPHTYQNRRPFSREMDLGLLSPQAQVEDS
Experimental: as §1

[1] = biological target: T2, BA/F3 cells expressing Flt3 (Homo sapiens, UniProt P36888, cells depend on it, form not given); assay: Cell viability by MTS assay (MTS Assay 2); format: cell-based; conditions: BA/F3 cells expressing Flt3, 20-48 hrs; symbol after the slash; read-out: MTS Assay 2: concentration of compound required to reduce cell viability to 50%
T2 sequence (P36888 1-993): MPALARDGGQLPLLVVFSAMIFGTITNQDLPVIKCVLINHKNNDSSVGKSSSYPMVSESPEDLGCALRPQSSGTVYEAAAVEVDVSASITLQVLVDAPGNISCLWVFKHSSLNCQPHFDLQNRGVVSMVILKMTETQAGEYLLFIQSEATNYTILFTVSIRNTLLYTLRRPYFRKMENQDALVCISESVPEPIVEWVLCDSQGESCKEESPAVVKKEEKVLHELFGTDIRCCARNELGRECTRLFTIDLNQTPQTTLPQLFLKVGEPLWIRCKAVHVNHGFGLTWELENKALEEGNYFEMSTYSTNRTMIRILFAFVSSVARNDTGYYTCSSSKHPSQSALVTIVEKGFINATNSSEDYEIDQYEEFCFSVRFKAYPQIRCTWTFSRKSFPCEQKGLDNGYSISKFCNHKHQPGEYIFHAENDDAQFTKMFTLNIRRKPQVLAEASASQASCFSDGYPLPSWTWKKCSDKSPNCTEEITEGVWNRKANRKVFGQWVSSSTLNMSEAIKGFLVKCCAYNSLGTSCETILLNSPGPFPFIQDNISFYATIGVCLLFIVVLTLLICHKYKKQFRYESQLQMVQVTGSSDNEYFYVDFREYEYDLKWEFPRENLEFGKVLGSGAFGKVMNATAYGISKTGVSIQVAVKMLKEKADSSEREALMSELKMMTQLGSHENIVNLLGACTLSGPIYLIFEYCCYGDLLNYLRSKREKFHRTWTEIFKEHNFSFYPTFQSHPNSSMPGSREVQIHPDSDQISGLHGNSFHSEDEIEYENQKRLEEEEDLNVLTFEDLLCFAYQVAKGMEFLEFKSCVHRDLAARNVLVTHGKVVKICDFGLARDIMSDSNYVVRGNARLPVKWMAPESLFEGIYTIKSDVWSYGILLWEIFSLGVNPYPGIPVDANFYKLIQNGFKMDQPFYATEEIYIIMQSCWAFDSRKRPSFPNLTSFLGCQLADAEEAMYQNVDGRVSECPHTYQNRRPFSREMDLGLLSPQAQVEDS
Experimental: FIG. 3 illustrates the effect of the compounds of Examples 5 to 7 on Ba/F3 cells expressing Flt3 kinase. Results for imatinib (negative control) and quizartinib (positive control) are also provided.
(§2) The effect of the compounds on cell viability were determined using MTS assay. MTS Cell Proliferation Assay Kit is a colorimetric method for sensitive quantification of viable cells in proliferation and cytotoxicity assay. The method is based on the reduction of MTS tetrazolium compound by viable cells to generate a colored formazan product that is soluble in cell culture media. BA/F3 cells expressing the receptor tyrosine kinase (either PDGFR [MTS Assay 1] or Flt3 [MTS Assay 2]) were cultured in standard culture conditions in a 96-well microtiter plate (final volume of 200 μl/well) in the absence or presence of the compound to be tested and were incubated for 20-48 hrs. MTS Reagent (20 μl/well) was added into each well & incubated for 0.5-4 hours at 37° C. in standard culture conditions. Absorbance at 490 nm was recorded using a plate reader.
(§3) Results are shown in FIGS. 2 and 3, and Table 2 (where IC50 indicates the concentration of compound required to reduce cell viability to 50%).
(§4) For the MTS Assay, the result indicates the concentration of compound required to reduce cell viability to 50%.

[2] = system: BA/F3 cells expressing PDGFR; assay: Cell viability by MTS assay (MTS Assay 1); format: cell-based; conditions: for IC50: Mus musculus, BaF3, read-out: MTS Assay 1: concentration of compound required to reduce cell viability to 50%; for Activity compared to the imatinib and quizartinib controls (cell viability): MTS assay, FIGS. 2 and 3
Experimental: FIG. 2 illustrates the effect of the compounds of Examples 1 to 4 on Ba/F3 cells expressing PDGFR. Results for imatinib and quizartinib are provided as positive controls.
as §2, §3, §4

[3] = system: PDGFRβ signaling (PDGFRβ autophosphorylation, Shp2 phosphorylation) in HEK293 cells expressing human PDGFR; assay: Western blot of PDGFRβ signaling in HEK293 cell line model; format: cell-based; conditions: 20 ng/ml PDGF, FIG. 1
Experimental: FIG. 1 represents Western-blot analysis result of the compounds of Examples 1 and 2 in relation to inhibition of PDGFRβ and p-SHP2 signalling in HEK293 cells expressing PDGFRβ.
Human Embryonic kidney cells (HEK293) were constructed to express human PDGFRWT under the control of constitutive CMV promoter. Cells were grown in the presence of 20 ng/ml PDGF (the ligand for the PDGFRβ) to activate the PDGFRβ. Different concentrations of the compounds of Examples 1 and 2 were added to study their effect on the PDGFRβ-mediated signaling. Autophosphorylation of PDGFRβ and Shp2 phosphorylation were monitored by Western blotting and were used as the markers for PDGFRβ signaling. β-Actin was used as an internal control.

CDK19, sequence (Q9BWU1 whole entry): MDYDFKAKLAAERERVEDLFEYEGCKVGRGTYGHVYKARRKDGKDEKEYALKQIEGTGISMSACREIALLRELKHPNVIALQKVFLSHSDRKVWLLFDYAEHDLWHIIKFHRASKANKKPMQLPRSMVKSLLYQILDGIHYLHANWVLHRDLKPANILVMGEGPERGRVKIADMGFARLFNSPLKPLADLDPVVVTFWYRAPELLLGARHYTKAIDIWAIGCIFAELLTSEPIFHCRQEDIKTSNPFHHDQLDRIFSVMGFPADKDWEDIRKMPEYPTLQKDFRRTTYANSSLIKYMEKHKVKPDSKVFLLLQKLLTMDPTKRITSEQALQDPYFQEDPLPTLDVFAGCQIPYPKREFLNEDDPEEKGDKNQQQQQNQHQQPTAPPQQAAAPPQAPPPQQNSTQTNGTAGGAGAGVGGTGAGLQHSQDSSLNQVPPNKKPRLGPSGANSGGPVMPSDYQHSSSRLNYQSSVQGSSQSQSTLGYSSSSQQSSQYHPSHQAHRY
CDK19, sequence (P24863 whole entry partner): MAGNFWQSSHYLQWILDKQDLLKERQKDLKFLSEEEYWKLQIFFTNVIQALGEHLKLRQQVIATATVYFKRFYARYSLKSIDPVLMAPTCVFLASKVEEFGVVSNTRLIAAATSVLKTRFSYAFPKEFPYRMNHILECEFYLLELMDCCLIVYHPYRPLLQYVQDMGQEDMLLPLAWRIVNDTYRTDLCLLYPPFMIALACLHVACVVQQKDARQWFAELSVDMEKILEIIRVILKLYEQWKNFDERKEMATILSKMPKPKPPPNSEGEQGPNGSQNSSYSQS
PDGFR-α, sequence (P16234 24-1089): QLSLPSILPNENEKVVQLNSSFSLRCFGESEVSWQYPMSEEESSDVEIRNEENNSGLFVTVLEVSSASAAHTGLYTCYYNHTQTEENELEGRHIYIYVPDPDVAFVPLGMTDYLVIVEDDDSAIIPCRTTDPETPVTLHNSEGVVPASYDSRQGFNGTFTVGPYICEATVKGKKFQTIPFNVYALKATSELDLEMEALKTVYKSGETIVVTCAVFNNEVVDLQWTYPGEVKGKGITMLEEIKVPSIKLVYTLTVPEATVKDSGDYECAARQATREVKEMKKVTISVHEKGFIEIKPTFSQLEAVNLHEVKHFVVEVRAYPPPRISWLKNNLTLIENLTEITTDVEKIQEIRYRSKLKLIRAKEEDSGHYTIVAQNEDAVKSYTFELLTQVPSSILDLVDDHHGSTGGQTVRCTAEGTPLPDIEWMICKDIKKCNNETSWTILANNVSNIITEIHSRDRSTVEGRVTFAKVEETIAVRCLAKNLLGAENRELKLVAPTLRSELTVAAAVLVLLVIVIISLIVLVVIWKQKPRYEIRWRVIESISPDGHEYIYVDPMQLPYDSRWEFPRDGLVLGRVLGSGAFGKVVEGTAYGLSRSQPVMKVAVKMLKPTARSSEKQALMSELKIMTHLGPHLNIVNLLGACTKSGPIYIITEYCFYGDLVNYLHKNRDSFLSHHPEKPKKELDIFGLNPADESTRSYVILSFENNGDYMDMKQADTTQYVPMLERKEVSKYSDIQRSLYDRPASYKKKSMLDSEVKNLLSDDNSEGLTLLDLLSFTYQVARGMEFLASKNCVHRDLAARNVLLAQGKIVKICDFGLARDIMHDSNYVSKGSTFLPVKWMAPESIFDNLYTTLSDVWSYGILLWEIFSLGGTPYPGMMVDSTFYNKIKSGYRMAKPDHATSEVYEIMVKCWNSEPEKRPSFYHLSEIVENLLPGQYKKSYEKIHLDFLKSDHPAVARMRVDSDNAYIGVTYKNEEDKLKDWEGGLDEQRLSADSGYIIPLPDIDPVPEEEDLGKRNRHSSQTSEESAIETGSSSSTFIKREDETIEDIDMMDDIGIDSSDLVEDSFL
PDGFR-β, sequence (P09619 33-1106): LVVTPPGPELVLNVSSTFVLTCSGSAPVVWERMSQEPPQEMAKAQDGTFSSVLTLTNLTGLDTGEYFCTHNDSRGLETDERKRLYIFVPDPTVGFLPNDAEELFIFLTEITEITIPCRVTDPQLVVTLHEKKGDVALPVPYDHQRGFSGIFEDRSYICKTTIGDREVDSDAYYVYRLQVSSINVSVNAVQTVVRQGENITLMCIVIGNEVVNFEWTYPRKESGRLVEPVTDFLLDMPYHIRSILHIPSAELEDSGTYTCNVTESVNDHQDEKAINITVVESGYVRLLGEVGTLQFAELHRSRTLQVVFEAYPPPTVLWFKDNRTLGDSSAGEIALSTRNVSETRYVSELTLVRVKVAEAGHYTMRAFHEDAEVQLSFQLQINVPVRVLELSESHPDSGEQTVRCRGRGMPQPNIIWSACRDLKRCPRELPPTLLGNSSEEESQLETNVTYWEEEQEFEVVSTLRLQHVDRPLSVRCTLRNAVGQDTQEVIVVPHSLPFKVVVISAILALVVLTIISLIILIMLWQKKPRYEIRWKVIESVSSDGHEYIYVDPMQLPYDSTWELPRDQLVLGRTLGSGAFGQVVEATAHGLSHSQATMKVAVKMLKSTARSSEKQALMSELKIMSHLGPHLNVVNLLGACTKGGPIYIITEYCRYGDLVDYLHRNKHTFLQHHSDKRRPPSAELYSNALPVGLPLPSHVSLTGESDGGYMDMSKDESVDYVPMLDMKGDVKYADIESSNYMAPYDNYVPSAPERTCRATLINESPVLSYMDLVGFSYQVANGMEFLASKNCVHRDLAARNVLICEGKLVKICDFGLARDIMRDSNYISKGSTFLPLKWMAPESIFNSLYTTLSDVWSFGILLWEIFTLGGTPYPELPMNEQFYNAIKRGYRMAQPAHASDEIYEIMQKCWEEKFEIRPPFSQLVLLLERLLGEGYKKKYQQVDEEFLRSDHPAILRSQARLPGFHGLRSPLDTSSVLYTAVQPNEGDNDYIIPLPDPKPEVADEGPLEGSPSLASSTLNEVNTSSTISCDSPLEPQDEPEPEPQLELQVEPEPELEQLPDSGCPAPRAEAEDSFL
CDK8, sequence (P49336 whole entry, the tested form may be a part): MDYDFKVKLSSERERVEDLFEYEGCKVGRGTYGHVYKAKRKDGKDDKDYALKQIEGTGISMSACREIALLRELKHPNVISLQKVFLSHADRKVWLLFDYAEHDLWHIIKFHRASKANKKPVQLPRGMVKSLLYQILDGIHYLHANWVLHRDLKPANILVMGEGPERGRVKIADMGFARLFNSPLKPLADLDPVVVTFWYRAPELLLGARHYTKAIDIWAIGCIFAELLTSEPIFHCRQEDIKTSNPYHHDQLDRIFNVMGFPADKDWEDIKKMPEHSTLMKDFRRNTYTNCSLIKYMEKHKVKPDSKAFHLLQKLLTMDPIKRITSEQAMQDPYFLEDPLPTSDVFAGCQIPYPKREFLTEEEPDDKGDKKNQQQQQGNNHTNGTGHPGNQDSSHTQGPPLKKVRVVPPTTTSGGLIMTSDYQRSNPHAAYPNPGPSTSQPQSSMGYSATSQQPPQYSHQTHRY
CDK8, sequence (P24863 whole entry partner, the tested form may be a part): as the sequence (P24863 whole entry partner) above
VEGFR-2, sequence (P35968 20-1356): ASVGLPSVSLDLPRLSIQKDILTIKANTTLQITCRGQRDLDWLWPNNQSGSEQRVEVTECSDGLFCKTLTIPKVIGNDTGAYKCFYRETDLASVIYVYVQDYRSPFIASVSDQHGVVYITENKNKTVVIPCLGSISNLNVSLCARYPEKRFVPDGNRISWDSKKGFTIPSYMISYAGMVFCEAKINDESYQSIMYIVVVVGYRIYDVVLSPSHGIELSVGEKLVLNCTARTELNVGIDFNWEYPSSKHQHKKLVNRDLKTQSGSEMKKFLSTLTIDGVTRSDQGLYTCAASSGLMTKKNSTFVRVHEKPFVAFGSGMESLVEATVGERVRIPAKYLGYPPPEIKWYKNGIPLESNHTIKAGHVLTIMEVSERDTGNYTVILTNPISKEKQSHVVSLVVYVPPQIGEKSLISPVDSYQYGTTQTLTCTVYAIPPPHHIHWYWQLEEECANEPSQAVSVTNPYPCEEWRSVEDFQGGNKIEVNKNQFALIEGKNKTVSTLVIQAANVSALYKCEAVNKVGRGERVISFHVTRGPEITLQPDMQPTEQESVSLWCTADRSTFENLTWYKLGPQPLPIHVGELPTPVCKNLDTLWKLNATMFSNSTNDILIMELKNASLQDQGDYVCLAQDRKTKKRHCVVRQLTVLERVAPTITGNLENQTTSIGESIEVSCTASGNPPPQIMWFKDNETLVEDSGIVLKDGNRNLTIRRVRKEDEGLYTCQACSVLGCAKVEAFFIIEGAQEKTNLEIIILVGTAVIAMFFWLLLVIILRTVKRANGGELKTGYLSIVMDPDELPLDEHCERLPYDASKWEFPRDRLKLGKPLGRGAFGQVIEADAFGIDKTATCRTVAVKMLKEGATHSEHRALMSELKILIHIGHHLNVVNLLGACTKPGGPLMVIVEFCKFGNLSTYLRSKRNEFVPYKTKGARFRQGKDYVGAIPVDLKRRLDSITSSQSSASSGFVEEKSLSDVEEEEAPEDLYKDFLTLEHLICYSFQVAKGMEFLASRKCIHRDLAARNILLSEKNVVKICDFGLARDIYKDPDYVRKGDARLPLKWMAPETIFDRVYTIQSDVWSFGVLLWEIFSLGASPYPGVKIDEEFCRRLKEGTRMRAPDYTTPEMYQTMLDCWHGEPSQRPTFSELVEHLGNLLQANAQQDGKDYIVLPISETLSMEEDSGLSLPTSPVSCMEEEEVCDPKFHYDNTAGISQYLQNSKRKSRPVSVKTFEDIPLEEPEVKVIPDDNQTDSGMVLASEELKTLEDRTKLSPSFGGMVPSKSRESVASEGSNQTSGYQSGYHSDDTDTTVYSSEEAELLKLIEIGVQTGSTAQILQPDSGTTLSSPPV

SMILES	IC50 (CDK8)	IC50 (PDGFR-β)	IC50 (VEGFR-2)	IC50 (PDGFR-α)	IC50 (CDK19)	IC50 (Flt3)	IC50 [1]	IC50 [2]	Inhibition of PDGFRβ signaling (PDGFRβ autophosphorylation and Shp2 phosphorylation, Western blot) [3]	Activity compared to the imatinib and quizartinib controls (cell viability) [2]
Cn1nc(NC(=O)C2(C(=O)Nc3ccc(-c4cnc5cnccn45)cc3)CC2)cc1C(F)(F)F [Example 21]	< 500 nM	> 5000 nM	> 5000 nM	> 5000 nM	< 500 nM	> 5000 nM				
Cn1nc(NC(=O)C2(C(=O)Nc3ccc(-c4cnc5cnccn45)c(F)c3)CC2)cc1C(F)(F)F [Example 22]	< 500 nM	> 5000 nM	500 to 5000 nM	> 5000 nM	< 500 nM	> 5000 nM				
Cc1ccc(NC(=O)CNc2ccc(-c3cnc4cnccn34)cc2)cc1C(F)(F)F [Example 15]							< 500 nM			
Cc1ccc(NC(=O)COc2ccc(-c3cnc4ccccn34)cn2)cc1C(F)(F)F [Example 2]						< 500 nM		< 500 nM	able to inhibit PDGFRβ signaling	
Cc1cnc(NC(=O)COc2ccc(-c3cnc4ccccn34)cn2)cc1C(F)(F)F [Example 8]	< 500 nM	< 500 nM	< 500 nM	< 500 nM	< 500 nM	< 500 nM		< 500 nM		
O=C(Nc1ccc(-c2cnc3cnccn23)cc1)C1(C(=O)Nc2cc(C(F)(F)F)c(Cl)cn2)CC1 [Example 20]	< 500 nM	> 5000 nM	> 5000 nM	> 5000 nM	< 500 nM	> 5000 nM				
Cc1cnc(NC(=O)COc2ccc(-c3cnc4cnccn34)cn2)cc1C(F)(F)F [Example 3]	< 500 nM	< 500 nM	< 500 nM	< 500 nM	< 500 nM	< 500 nM		< 500 nM		improved activity
Cn1nc(NC(=O)COc2ccc(-c3cnc4cnccn34)cn2)cc1C(F)(F)F [Example 9]								< 500 nM		
Cc1ccc(NC(=O)COc2ccc(-c3cnc4cnccn34)c(F)n2)cc1C(F)(F)F [Example 7]							< 500 nM			
Cn1nc(NC(=O)COc2ccc(-c3cnc4ccccn34)cn2)cc1C(F)(F)F [Example 1]							< 500 nM		able to inhibit PDGFRβ signaling	improved activity
